# “And” between values parts separate entries of the source, which are not always exact repeats. Identical values can stand only once.
# Target: KV7.2/3 channel (Homo sapiens, UniProt O43525+O43526)
# Assay: KV7.2/3 channel opening assay (thallium-sensitive fluorescence)
# Type: cell-based
# Details: 36a compared with 36b
# Description: To evaluate the biological activity, the synthesized analogues were tested on HEK293 cells overexpressing the KV7.2/3 channel. The measurement was carried out in a fluorescence-based assay in which a thallium-sensitive dye generated the fluorescence signal. Due to its similarity to potassium, thallium can also pass through KV7 channels. The intensity of the fluorescence signal correlates with the amount of intracellular thallium and thus with the ability of the compounds to open KV7 channels. To determine the potency, the fluorescence intensity was measured as a function of the compound concentration. The efficacy was determined relative to the maximum fluorescence signal induced by flupirtine. For a summary of the activity data, see Table 2.
# The cell culture of the KV7.2/3 transfected HEK293 cells (HEK293 KCNQ2/3 cells from SB Drug Discovery, Glasgow, UK) used for the assay and the processing of the obtained data were performed as described in earlier work.[27],[29] Briefly, 60,000 cells/well were seeded into 96-well microtiter plates for fluorescence-based assays (4titude Vision Plate Black 96-Well microtiter plates from ThermoScientic) and incubated for 24 h. After incubation, the medium was changed to 200 μL/well loading buffer containing 5 mmol/L probenecid and incubated for 1 h at room temperature. Subsequently, the test compounds dissolved in DMSO were added to the wells to the desired concentrations and further incubated for 30 min. As a control, the loading buffer with a DMSO concentration corresponding to the substance samples (1% (V/V)) was used. Fluorescence measurements were performed on the Infinite F200 Pro plate reader (Tecan) set at […]/emission wavelengths of 485 and 535 nm, respectively. After measuring the background fluorescence (baseline) for 20 s, a stimulus buffer (25 mmol/L K^+, 15 mmol/L Tl^+) was added just before the fluorescence of each well was measured.
# The calculations to obtain dose–response curves were performed in the same manner as in previous investigations.[27],[29] Briefly, the fluorescence intensity was normalized with the baseline signal (F/F0) at each time of signal acquisition. To obtain the corrected negative control, a value of 1 was subtracted from the normalized value of the negative control. Subsequently, the value of the corrected negative control was subtracted from the maximum (corr. F/F0) value of a compound in a defined concentration (corr. ΔF/F0) and then plotted against the logarithmic concentration. The EC50 value was calculated as relative values with GraphPad Prism 6 (La Jolla, CA, USA), that is, the inflection points of the sigmoidal curves. The Emax value, the maximum response, indicates the intrinsic activity of a compound. This value was determined relative to flupirtine (1), where the maximum corr. ΔF/F0 value of flupirtine (1) was defined as 100%. The EC50 and Emax value of a compound is the mean of at least three independent experiments ± standard deviation (SD).
# KV7.2/3 channel, sequence (O43526 whole entry): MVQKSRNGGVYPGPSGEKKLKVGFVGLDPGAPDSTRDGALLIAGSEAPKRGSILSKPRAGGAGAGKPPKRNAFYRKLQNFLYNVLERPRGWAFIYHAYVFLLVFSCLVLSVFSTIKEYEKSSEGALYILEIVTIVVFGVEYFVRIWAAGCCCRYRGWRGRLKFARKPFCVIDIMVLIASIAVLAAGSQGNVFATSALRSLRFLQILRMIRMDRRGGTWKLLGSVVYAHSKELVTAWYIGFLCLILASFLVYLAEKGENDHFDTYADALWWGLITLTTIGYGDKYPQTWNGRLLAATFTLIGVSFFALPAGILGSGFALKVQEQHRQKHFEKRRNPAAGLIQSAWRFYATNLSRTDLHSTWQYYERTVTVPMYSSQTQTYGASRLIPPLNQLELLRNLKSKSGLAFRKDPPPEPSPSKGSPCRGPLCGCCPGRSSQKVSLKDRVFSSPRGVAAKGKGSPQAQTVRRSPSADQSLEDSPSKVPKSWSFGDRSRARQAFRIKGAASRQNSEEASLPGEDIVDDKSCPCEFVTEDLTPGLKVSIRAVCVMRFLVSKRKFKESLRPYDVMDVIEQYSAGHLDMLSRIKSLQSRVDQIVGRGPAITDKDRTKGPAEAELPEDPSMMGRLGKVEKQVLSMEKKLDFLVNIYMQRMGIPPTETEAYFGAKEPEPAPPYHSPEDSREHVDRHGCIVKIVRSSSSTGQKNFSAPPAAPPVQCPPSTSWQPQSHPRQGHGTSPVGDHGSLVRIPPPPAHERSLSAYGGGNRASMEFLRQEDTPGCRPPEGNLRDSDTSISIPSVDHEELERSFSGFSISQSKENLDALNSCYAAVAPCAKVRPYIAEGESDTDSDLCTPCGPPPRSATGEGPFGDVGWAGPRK
# KV7.2/3 channel, sequence (O43525 whole entry): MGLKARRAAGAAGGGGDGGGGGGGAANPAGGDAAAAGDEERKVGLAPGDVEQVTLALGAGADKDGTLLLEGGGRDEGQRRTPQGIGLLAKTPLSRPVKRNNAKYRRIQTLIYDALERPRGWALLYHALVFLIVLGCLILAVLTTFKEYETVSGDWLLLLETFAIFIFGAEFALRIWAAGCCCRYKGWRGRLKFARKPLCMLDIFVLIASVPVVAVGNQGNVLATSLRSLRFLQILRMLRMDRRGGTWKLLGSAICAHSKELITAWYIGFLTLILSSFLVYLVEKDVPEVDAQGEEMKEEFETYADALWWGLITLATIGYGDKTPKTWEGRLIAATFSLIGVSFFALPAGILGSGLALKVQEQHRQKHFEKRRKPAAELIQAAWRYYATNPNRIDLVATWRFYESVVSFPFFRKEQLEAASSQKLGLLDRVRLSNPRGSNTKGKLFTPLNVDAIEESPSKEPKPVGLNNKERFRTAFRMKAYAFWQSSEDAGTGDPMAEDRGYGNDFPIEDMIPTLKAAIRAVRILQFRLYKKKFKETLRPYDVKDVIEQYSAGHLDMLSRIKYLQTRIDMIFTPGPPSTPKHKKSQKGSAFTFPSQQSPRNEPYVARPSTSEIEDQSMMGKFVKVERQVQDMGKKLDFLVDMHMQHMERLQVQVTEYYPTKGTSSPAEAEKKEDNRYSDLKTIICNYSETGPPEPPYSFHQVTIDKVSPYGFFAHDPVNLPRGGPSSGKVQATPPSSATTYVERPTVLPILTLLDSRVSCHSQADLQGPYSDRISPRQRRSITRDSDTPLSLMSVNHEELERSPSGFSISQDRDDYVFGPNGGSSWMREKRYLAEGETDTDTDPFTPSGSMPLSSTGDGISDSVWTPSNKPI
row,Structure (SMILES),loss of potency (factor)
1,"CCCCNC(=O)c1c(C)cc(NCc2ccc(F)cc2)nc1OC [36a, N-Butyl-6-[(4-fluorobenzyl)amino]-2-methoxy-4-methylnicotinamide]",11

# Same assay, conditions: HEK293 cells overexpressing KV7.2/3; concentration for half-maximal channel opening; mean ± SD, ≥3 determinations
row,Structure (SMILES),EC50
1,"CCCCNC(=O)c1c(C)cc(NCc2ccc(F)cc2)nc1OC [36a, N-Butyl-6-[(4-fluorobenzyl)amino]-2-methoxy-4-methylnicotinamide]",3510 ± 724 nM
2,"CCOC(=O)Nc1ccc(NCc2ccc(F)cc2)nc1N [compound 1, flupirtine, reference compound]",1840 ± 844 nM

# Same assay, conditions: HEK293 cells overexpressing KV7.2/3; relative to maximum signal of flupirtine (=100%)
row,Structure (SMILES),efficacy
1,"CCCCNC(=O)c1c(C)cc(NCc2ccc(F)cc2)nc1OC [36a, N-Butyl-6-[(4-fluorobenzyl)amino]-2-methoxy-4-methylnicotinamide]",65% and 65 ± 9%
2,"CCOC(=O)Nc1ccc(NCc2ccc(F)cc2)nc1N [compound 1, flupirtine, reference compound]",100%

# Tested on: TAMH cells
# Assay: MTT cell viability assay, TAMH cells
# Details: TAMH cells, MTT assay, 24 h exposure; 25% reduction of viability
# Description: (§1) In addition to the activity, basic toxicological properties of the newly synthesized compounds were also investigated by using the 3-(4,5-dimethylthiazol-2-yl)-2,5-diphenyltetrazolium bromide (MTT) cell viability assay on mouse TAMH and human HEP-G2 hepatic cell lines (see Table 2). Both cell lines are established for the evaluation of hepatotoxicity.[42],[43]
# (§2) The culturing of the mouse liver TAMH and human liver cancer HEP-G2 cell lines and the MTT assay used to evaluate cell viability were carried out as previously described elsewhere in detail.[27],[29] […] The medium in the wells was then replaced with the medium containing the compounds. Control wells contained an equivalent number of cells and 1% (v/v) DMSO. Wells without cells were used to determine the background optical density (OD) and were treated as the control wells. After 24 or 48 h of incubation with the compound, the respective medium was replaced with a fresh medium supplemented with 10% (v/v) of a 2.5 mg/mL solution of MTT. The plates were incubated for 4 h. Then, the culture medium was carefully aspirated off and 50 μL of DMSO was added to each well to dissolve the formazan crystals. The ODs of each well were measured at λ = 570 nm with a SpectraMax 190 microplate reader.
# (§3) The calculated T/Ccorr. values were plotted against the log(concentration). The LD50 and LD25 values were determined by using GraphPad Prism 6. […] The values are given as the mean with SD of at least three independent experiments.
row,Structure (SMILES),LD25
1,"CCCCNC(=O)c1c(C)cc(NCc2ccc(F)cc2)nc1OC [36a, N-Butyl-6-[(4-fluorobenzyl)amino]-2-methoxy-4-methylnicotinamide]",17 ± 1 µM

# Same assay, conditions: TAMH cells, MTT assay, 24 h exposure; 50% reduction of viability
row,Structure (SMILES),LD50
1,"CCCCNC(=O)c1c(C)cc(NCc2ccc(F)cc2)nc1OC [36a, N-Butyl-6-[(4-fluorobenzyl)amino]-2-methoxy-4-methylnicotinamide]",>63 µM
2,"CCOC(=O)Nc1ccc(NCc2ccc(F)cc2)nc1N [compound 1, flupirtine, reference compound]",487 ± 51 µM

# Same assay, conditions: TAMH cells, MTT assay, 24 h exposure; 50% reduction of viability; listed as flupirtine
row,Structure (SMILES),LD50
1,"CCOC(=O)Nc1ccc(NCc2ccc(F)cc2)nc1N [compound 1, flupirtine, reference compound]",~500 µM

# Same assay, conditions: mouse, 24 h
row,Structure (SMILES),LD25
1,"CCOC(=O)Nc1ccc(NCc2ccc(F)cc2)nc1N [compound 1, flupirtine, reference compound]",103 ± 47 µM

# Tested on: HEP-G2 cells
# Assay: MTT cell viability assay, HEP-G2 cells
# Details: HEP-G2 cells, MTT assay, 24 h exposure; 25% reduction of viability
# Description: as §1, §2, §3
row,Structure (SMILES),LD25
1,"CCCCNC(=O)c1c(C)cc(NCc2ccc(F)cc2)nc1OC [36a, N-Butyl-6-[(4-fluorobenzyl)amino]-2-methoxy-4-methylnicotinamide]",24 ± 1 µM

# Same assay, conditions: HEP-G2 cells, MTT assay, 24 h exposure; 50% reduction of viability
row,Structure (SMILES),LD50
1,"CCCCNC(=O)c1c(C)cc(NCc2ccc(F)cc2)nc1OC [36a, N-Butyl-6-[(4-fluorobenzyl)amino]-2-methoxy-4-methylnicotinamide]",>63 µM
2,"CCOC(=O)Nc1ccc(NCc2ccc(F)cc2)nc1N [compound 1, flupirtine, reference compound]",547 ± 111 µM

# Same assay, conditions: HEP-G2 cells, MTT assay, 24 h exposure; 50% reduction of viability; listed as flupirtine
row,Structure (SMILES),LD50
1,"CCOC(=O)Nc1ccc(NCc2ccc(F)cc2)nc1N [compound 1, flupirtine, reference compound]",~500 µM

# Same assay, conditions: human, 24 h
row,Structure (SMILES),LD25
1,"CCOC(=O)Nc1ccc(NCc2ccc(F)cc2)nc1N [compound 1, flupirtine, reference compound]",74 ± 40 µM

# Tested on: not listed separately
# Assay: log D7.4 estimation by HPLC-based method
# Type: physicochemical
# Details: HPLC, Phenomenex Luna 5 μm Phenyl-Hexyl column, pH 7.4, HPLC, calibration A1; read-out: logD7.4
# Description: The log D7.4 values were estimated using a common HPLC-based method in accordance with guideline OPPTS 830.7570 of the United States Environmental Protection Agency (EPA). The HPLC measurements were performed with a Phenomenex Luna 5 μm Phenyl-Hexyl 100 Å column (150 × 4.6 mm). […]. Uracil was used to measure the unretained peak time. To obtain a calibration function, the logarithm of the capacity factors for the reference substances was then plotted against the corresponding log P values taken from the mentioned guideline, which are equivalent to the log D7.4 values for non-ionizable compounds like the reference substances used for calibration. With this calibration function, it was possible to estimate the log D7.4 value from the corresponding retention time for each compound to be tested. For the measurement, 2 mg of the reference substances was each dissolved in 1 mL of methanol. A reference mixture was then obtained by combining 50 μL of each reference solution. The reference mixture was measured before and after the substances to be tested. The mean value from both measurements was used for the calibration line. The substances to be tested were injected as a solution in methanol (2 mg/mL), and the retention time was determined as the mean value from two measurements.
row,Structure (SMILES),chromatographic logD
1,"CCCCNC(=O)c1c(C)cc(NCc2ccc(F)cc2)nc1OC [36a, N-Butyl-6-[(4-fluorobenzyl)amino]-2-methoxy-4-methylnicotinamide]",3.7
2,"CCOC(=O)Nc1ccc(NCc2ccc(F)cc2)nc1N [compound 1, flupirtine, reference compound]",2.1

# Same assay, conditions: HPLC, Phenomenex Luna 5 μm Phenyl-Hexyl column, pH 7.4, HPLC, calibration B1; read-out: logD7.4
row,Structure (SMILES),chromatographic logD
1,"CCCCNC(=O)c1c(C)cc(NCc2ccc(F)cc2)nc1OC [36a, N-Butyl-6-[(4-fluorobenzyl)amino]-2-methoxy-4-methylnicotinamide]",3.66
2,"CCOC(=O)Nc1ccc(NCc2ccc(F)cc2)nc1N [compound 1, flupirtine, reference compound]",2.06

# Same assay, conditions: HPLC, Phenomenex Luna 5 μm Phenyl-Hexyl column, pH 7.4, HPLC, mean of two calibrations; read-out: logD7.4 (mean)
row,Structure (SMILES),chromatographic logD
1,"CCCCNC(=O)c1c(C)cc(NCc2ccc(F)cc2)nc1OC [36a, N-Butyl-6-[(4-fluorobenzyl)amino]-2-methoxy-4-methylnicotinamide]",3.7
2,"CCOC(=O)Nc1ccc(NCc2ccc(F)cc2)nc1N [compound 1, flupirtine, reference compound]",2.1

# Same assay, conditions: HPLC, Phenomenex Luna 5 μm Phenyl-Hexyl column, pH 7.4, estimated by HPLC-based method, pH 7.4; read-out: log D7.4
row,Structure (SMILES),chromatographic logD
1,"CCCCNC(=O)c1c(C)cc(NCc2ccc(F)cc2)nc1OC [36a, N-Butyl-6-[(4-fluorobenzyl)amino]-2-methoxy-4-methylnicotinamide]",3.7
2,"CCOC(=O)Nc1ccc(NCc2ccc(F)cc2)nc1N [compound 1, flupirtine, reference compound]",2.1

# Reference: article PMC8908504 (ACS Omega, 2022)
